Tested on: KRAS PDC multicell spheroid viability
Test: Anticancer human tumor 521955-158-R6-J3-PDC patient-derived pancreatic carcinoma cell line growth inhibition [KRAS2]
Conditions: for IC50: curve of first compound; for viability, T/C: stronger effect = lower value
How it was run: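 KRAS-mutant tumor cells were grown as spheroids with HUVEC endothelial cells and human MSCs as stroma. Targeted agents were tested alone and with KRAS pathway inhibitors. Doses started at or near clinical Cmax, or 10 microM, descending half-log.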

[1] = second compound 0.1 µM, first compound 0.01 µM
[2] = second compound 0.1 µM, first compound 0.0316 µM
[3] = second compound 0.1 µM, first compound 0.1 µM
[4] = second compound 0.1 µM, first compound 0.316 µM
[5] = second compound 0.1 µM, first compound 1 µM
[6] = second compound 0.1 µM, first compound 3.16 µM
[7] = second compound 0.316 µM, first compound 0.01 µM
[8] = second compound 0.316 µM, first compound 0.0316 µM
[9] = second compound 0.316 µM, first compound 0.1 µM
[10] = second compound 0.316 µM, first compound 0.316 µM
[11] = second compound 0.316 µM, first compound 1 µM
[12] = second compound 0.316 µM, first compound 3.16 µM
[13] = second compound 1 µM, first compound 0.01 µM
[14] = second compound 1 µM, first compound 0.0316 µM
[15] = second compound 1 µM, first compound 0.1 µM
[16] = second compound 1 µM, first compound 0.316 µM
[17] = second compound 1 µM, first compound 1 µM
[18] = second compound 1 µM, first compound 3.16 µM
[19] = second compound 3.16 µM, first compound 0.01 µM
[20] = second compound 3.16 µM, first compound 0.0316 µM
[21] = second compound 3.16 µM, first compound 0.1 µM
[22] = second compound 3.16 µM, first compound 0.316 µM
[23] = second compound 3.16 µM, first compound 1 µM
[24] = second compound 3.16 µM, first compound 3.16 µM
[25] = second compound 10 µM, first compound 0.01 µM
[26] = second compound 10 µM, first compound 0.0316 µM
[27] = second compound 10 µM, first compound 0.1 µM
[28] = second compound 10 µM, first compound 0.316 µM
[29] = second compound 10 µM, first compound 1 µM
[30] = second compound 10 µM, first compound 3.16 µM
[31] = second compound 0.1 µM, first compound 10 µM
[32] = second compound 0.316 µM, first compound 10 µM
[33] = second compound 1 µM, first compound 10 µM
[34] = second compound 3.16 µM, first compound 10 µM
[35] = second compound 10 µM, first compound 10 µM
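Further: drug exposure lasted seven days.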
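Wherever viability, T/C is given: 100% = DMSO vehicle wells and lower means fewer viable cells.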

Compound	IC50 (second compound 0.1 µM)	IC50 (second compound 0.316 µM)	IC50 (second compound 1 µM)	IC50 (second compound 3.16 µM)	IC50 (second compound 10 µM)	viability, T/C [2]	viability, T/C [3]	viability, T/C [4]	viability, T/C [5]	viability, T/C [6]	viability, T/C [8]	viability, T/C [9]	viability, T/C [10]	viability, T/C [11]	viability, T/C [14]	viability, T/C [15]	viability, T/C [20]	viability, T/C [21]	viability, T/C [26]	viability, T/C [27]	also measured
CC(=O)OC12COC1CC(O)C1(C)C(=O)C(O)C3=C(C)C(OC(=O)C(O)C(NC(=O)OC(C)(C)C)c4ccccc4)CC(O)(C(OC(=O)c4ccccc4)C21)C3(C)C (stereo not given) + CC1OCC2(CCN(c3cnc(Sc4ccnc(N)c4Cl)c(N)n3)CC2)C1N	> 3160 nM	> 3160 nM	> 3160 nM	> 3160 nM	> 3160 nM	65.4%	74.1%	76.1%	95.5%	114%	84.2%	72.5%	74.9%	87.8%	83.4%	69.7%	86.6%	87.3%	88.9%	95%	viability, T/C [1]: 82.9%; viability, T/C [7]: 83%; viability, T/C [12]: 108%; viability, T/C [13]: 79.8%; viability, T/C [16]: 78.6%; viability, T/C [17]: 96.7%; viability, T/C [18]: 114%; viability, T/C [19]: 88.7%; viability, T/C [22]: 94.4%; viability, T/C [23]: 106%; viability, T/C [24]: 109%; viability, T/C [25]: 99.7%; viability, T/C [28]: 99%; viability, T/C [29]: 96.1%; viability, T/C [30]: 118%
CN(C)C/C=C/C(=O)Nc1cc2c(Nc3ccc(F)c(Cl)c3)ncnc2cc1O[C@H]1CCOC1 + CC1OCC2(CCN(c3cnc(Sc4ccnc(N)c4Cl)c(N)n3)CC2)C1N	> 100 nM	51.1 nM	86.2 nM	24.4 nM	> 100 nM	62.1%	54.8%	–	–	–	53%	48.3%	–	–	69.8%	44.7%	28.3%	34.8%	50.1%	49.2%	viability, T/C (second compound 0.1 µM, first compound 0.000316 µM): 99.4%; viability, T/C (second compound 0.1 µM, first compound 0.001 µM): 84.2%; viability, T/C (second compound 0.1 µM, first compound 0.00316 µM): 76.7%; viability, T/C [1]: 55.3%; viability, T/C (second compound 0.316 µM, first compound 0.000316 µM): 99%; viability, T/C (second compound 0.316 µM, first compound 0.001 µM): 84.7%; viability, T/C (second compound 0.316 µM, first compound 0.00316 µM): 69.8%; viability, T/C [7]: 52.9%; viability, T/C (second compound 1 µM, first compound 0.000316 µM): 105%; viability, T/C (second compound 1 µM, first compound 0.001 µM): 86.4%; viability, T/C (second compound 1 µM, first compound 0.00316 µM): 87.4%; viability, T/C [13]: 64.9%; viability, T/C (second compound 3.16 µM, first compound 0.000316 µM): 124%; viability, T/C (second compound 3.16 µM, first compound 0.001 µM): 117%; viability, T/C (second compound 3.16 µM, first compound 0.00316 µM): 89.7%; viability, T/C [19]: 124%; viability, T/C (second compound 10 µM, first compound 0.000316 µM): 110%; viability, T/C (second compound 10 µM, first compound 0.001 µM): 101%; viability, T/C (second compound 10 µM, first compound 0.00316 µM): 71.8%; viability, T/C [25]: 60.9%
COC(=O)c1ccc2c(C(=Nc3ccc(N(C)C(=O)CN4CCN(C)CC4)cc3)c3ccccc3)c(O)[nH]c2c1 + CC1OCC2(CCN(c3cnc(Sc4ccnc(N)c4Cl)c(N)n3)CC2)C1N	2590 nM	2150 nM	2120 nM	2150 nM	1470 nM	79.8%	88.5%	108%	114%	40%	82.5%	102%	110%	113%	106%	104%	101%	120%	94.8%	94.8%	viability, T/C [31]: 1.22%; viability, T/C [12]: 23.6%; viability, T/C [32]: 0.76%; viability, T/C [16]: 111%; viability, T/C [17]: 95.6%; viability, T/C [18]: 25.5%; viability, T/C [33]: 0.47%; viability, T/C [22]: 103%; viability, T/C [23]: 99.2%; viability, T/C [24]: 25.4%; viability, T/C [34]: 0.29%; viability, T/C [28]: 83.7%; viability, T/C [29]: 72.2%; viability, T/C [30]: 6.64%; viability, T/C [35]: 2.18%
O=C(c1cc(Cc2n[nH]c(=O)c3ccccc23)ccc1F)N1CCN(C(=O)C2CC2)CC1 + CC1OCC2(CCN(c3cnc(Sc4ccnc(N)c4Cl)c(N)n3)CC2)C1N	> 10000 nM	> 10000 nM	> 10000 nM	> 10000 nM	> 10000 nM	83%	79.6%	75.8%	69.6%	73.5%	83.8%	85.8%	84.1%	74.8%	75.8%	78.2%	96%	98.6%	85.3%	85.6%	viability, T/C [31]: 84.1%; viability, T/C [12]: 66.2%; viability, T/C [32]: 69.5%; viability, T/C [16]: 81%; viability, T/C [17]: 76%; viability, T/C [18]: 71.9%; viability, T/C [33]: 75.9%; viability, T/C [22]: 88%; viability, T/C [23]: 75.9%; viability, T/C [24]: 78.3%; viability, T/C [34]: 72.1%; viability, T/C [28]: 61.5%; viability, T/C [29]: 70.3%; viability, T/C [30]: 70.8%; viability, T/C [35]: 63.9%

From PubChem BioAssay AID1963864 (Molecular Pharmacology Branch, DTP, NCI, 2024)
